Target: PRMT1 (Homo sapiens, UniProt Q99873)
Assay: Stopped flow fluorescence assay of PRMT1 inhibition ([PRMT1] 0.2 µM, [SAM] 3.5 µM, [H4FL] 0.4 µM);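 note: Stopped-flow traces of fluorescent H4FL peptide quenched on binding PRMT1 and restored on release, recorded 900 s, averaged over repeated drives and fit to a double-exponential model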
Format: biochemical
Excerpt: To obtain the IC50 of a specific inhibitor, the relative activities of the enzyme in presence of different concentrations of the inhibitor are required (equation 1).[37] […] By adding different concentrations of the inhibitor to the reaction mixture, the relative activity of the enzyme can be obtained by normalizing K to the reaction rate without the inhibitor, and then calculate the IC50 value using equation 1. In our stopped flow fluorescence assay, the reaction rate of Phase I and Phase II can be obtained by approximating and deriving the double-exponential equation (equation 2). In Phase I, during a very short period of time (where t is small), the curve is nearly linear, and the exponential equation can be approximately described as F1 = a · (−k1) · t. Therefore, the derivation of F1 equals –k1∙a, which is the slope of Phase I. Similarly, the curve of Phase II at early stage can be approximately described as F2 = b · (−k2) · t. This derivation of F2 equals –k2∙b, which is the slope of Phase II. The slopes at various inhibitor concentrations, normalized to the slope in the absence of inhibitor, can be used to obtain the corresponding relative enzyme activity from which the potency value (IC50) of the inhibitor can be calculated with equation 1.
In a stopped flow fluorescence assay, the binding of H4FL to PRMT1 (or the PRMT1—cofactor complex) quenches the peptide fluorescence, while release of the peptide restores the fluorescence. […] The widths of the entrance and exit slits of the monochromator were set to 0.5 mm. An equal volume of samples from two syringes was driven into the observation cell for mixing measurements. The H4FL concentration in all experiments was 0.4 μM. […] The fluorescent signal was recorded for 900 seconds, with 10,000 data points in total. Data from four to six drives were collected and averaged for each curve.
After averaging the shot data, the association time courses were fitted to a double-exponential function (equation 2) using GraphPad Prism (CA, USA). […] F is the fluorescence intensity at time t, k1, and k2 are the rate constants for Phase I and Phase II, a is the amplitude of the fluorescence change for k1, and b is the amplitude of the fluorescence change for k2. Simulation curves based on the values of a, b, k1, and k2 at fixed c = 1 were produced using Matlab. The IC50 value of inhibitors is determined by equation 1 using GraphPad Prism (CA, USA).

PRMT1, sequence (Q99873 29-371): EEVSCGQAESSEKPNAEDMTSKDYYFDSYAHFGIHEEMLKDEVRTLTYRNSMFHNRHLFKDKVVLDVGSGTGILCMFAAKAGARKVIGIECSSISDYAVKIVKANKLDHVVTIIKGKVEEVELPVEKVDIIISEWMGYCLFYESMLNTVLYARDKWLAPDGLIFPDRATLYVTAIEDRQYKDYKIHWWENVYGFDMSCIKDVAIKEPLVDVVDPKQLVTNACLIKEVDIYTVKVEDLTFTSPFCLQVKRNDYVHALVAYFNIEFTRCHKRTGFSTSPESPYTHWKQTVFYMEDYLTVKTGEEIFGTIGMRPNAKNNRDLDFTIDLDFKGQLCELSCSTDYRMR

Nc1ncnc2c1ncn2[C@@H]1O[C@H](CSCC[C@H](N)C(=O)O)[C@@H](O)[C@H]1O [SAH, S-adenosyl homocysteine]
-b·k2 (slope of Phase II) ([SAH] 0.1 µM): 0.000677 ± 1.35e-06 s⁻¹
a (amplitude, Phase I) ([SAH] 0.1 µM): 0.2027 ± 4.00E-04
a·k1 (slope of Phase I) ([SAH] 0.1 µM): 0.0122 ± 4.9e-05 s⁻¹
b (amplitude, Phase II) ([SAH] 0.1 µM): -0.2201 ± 1.26E-04
k1 (rate constant, Phase I) ([SAH] 0.1 µM): 0.05995 ± 2.11E-04 s^-1
k2 (rate constant, Phase II) ([SAH] 0.1 µM): 0.003078 ± 5.86E-06 s^-1
-b·k2 (slope of Phase II) ([SAH] 0.25 µM): 0.000561 ± 1.3e-06 s⁻¹
a (amplitude, Phase I) ([SAH] 0.25 µM): 0.2214 ± 4.39E-04
a·k1 (slope of Phase I) ([SAH] 0.25 µM): 0.0144 ± 5.59e-05 s⁻¹
b (amplitude, Phase II) ([SAH] 0.25 µM): -0.2306 ± 1.33E-04
k1 (rate constant, Phase I) ([SAH] 0.25 µM): 0.06487 ± 2.18E-04 s^-1
k2 (rate constant, Phase II) ([SAH] 0.25 µM): 0.002434 ± 5.47E-06 s^-1
-b·k2 (slope of Phase II) ([SAH] 0.5 µM): 0.000352 ± 1.25e-06 s⁻¹
a (amplitude, Phase I) ([SAH] 0.5 µM): 0.2658 ± 3.49E-04
b (amplitude, Phase II) ([SAH] 0.5 µM): -0.2629 ± 3.89E-04
k1 (rate constant, Phase I) ([SAH] 0.5 µM): 0.06324 ± 1.36E-04 s^-1
k2 (rate constant, Phase II) ([SAH] 0.5 µM): 0.00134 ± 4.32E-06 s^-1
-b·k2 (slope of Phase II) ([SAH] 1 µM): 0.000234 ± 1.38e-06 s⁻¹
a (amplitude, Phase I) ([SAH] 1 µM): 0.2726 ± 3.65E-04
a·k1 (slope of Phase I) ([SAH] 1 µM): 0.0186 ± 4.67e-05 s⁻¹
b (amplitude, Phase II) ([SAH] 1 µM): -0.2134 ± 6.03E-04
k1 (rate constant, Phase I) ([SAH] 1 µM): 0.06815 ± 1.45E-04 s^-1
k2 (rate constant, Phase II) ([SAH] 1 µM): 0.001095 ± 5.70E-06 s^-1
-b·k2 (slope of Phase II) ([SAH] 2.5 µM): 0.00011 ± 2.16e-06 s⁻¹
a (amplitude, Phase I) ([SAH] 2.5 µM): 0.2961 ± 3.73E-04
a·k1 (slope of Phase I) ([SAH] 2.5 µM): 0.0213 ± 4.93e-05 s⁻¹
b (amplitude, Phase II) ([SAH] 2.5 µM): -0.1862 ± 2.16E-03
k1 (rate constant, Phase I) ([SAH] 2.5 µM): 0.07177 ± 1.40E-04 s^-1
k2 (rate constant, Phase II) ([SAH] 2.5 µM): 0.0005933 ± 9.36E-06 s^-1
-b·k2 (slope of Phase II) ([SAH] 5 µM): 5.14e-05 ± 8.08e-06 s⁻¹
a (amplitude, Phase I) ([SAH] 5 µM): 0.2962 ± 3.74E-04
b (amplitude, Phase II) ([SAH] 5 µM): -0.3000 ± 3.18E-02
k1 (rate constant, Phase I) ([SAH] 5 µM): 0.05757 ± 1.17E-04 s^-1
k2 (rate constant, Phase II) ([SAH] 5 µM): 0.0001714 ± 1.98E-05 s^-1
-b·k2 (slope of Phase II) ([SAH] 10 µM): 2.22e-05 ± 2.71e-05 s⁻¹
a (amplitude, Phase I) ([SAH] 10 µM): 0.2774 ± 5.02E-04
b (amplitude, Phase II) ([SAH] 10 µM): -0.2999 ± 2.24E-01
increasing trend of Phase II ([SAH] 10 µM): almost abolished
k1 (rate constant, Phase I) ([SAH] 10 µM): 0.05889 ± 1.70E-04 s^-1
k2 (rate constant, Phase II) ([SAH] 10 µM): 7.42e-05 ± 5.74e-05 s⁻¹

Nc1ncnc2c1ncn2[C@@H]1O[C@H](C[C@@H](N)CC[C@H](N)C(=O)O)[C@@H](O)[C@H]1O [sinefungin]
-b·k2 (slope of Phase II) ([sinefungin] 0.0375 µM): 0.000574 ± 1.23e-06 s⁻¹
a (amplitude, Phase I) ([sinefungin] 0.0375 µM): 0.1645 ± 3.77E-04
a·k1 (slope of Phase I) ([sinefungin] 0.0375 µM): 0.0107 ± 4.96e-05 s⁻¹
b (amplitude, Phase II) ([sinefungin] 0.0375 µM): -0.1699 ± 1.17E-04
k1 (rate constant, Phase I) ([sinefungin] 0.0375 µM): 0.0653 ± 2.62E-04 s^-1
k2 (rate constant, Phase II) ([sinefungin] 0.0375 µM): 0.00338 ± 6.86e-06 s⁻¹
-b·k2 (slope of Phase II) ([sinefungin] 0.075 µM): 0.00042 ± 1.32e-06 s⁻¹
a (amplitude, Phase I) ([sinefungin] 0.075 µM): 0.2064 ± 3.83E-04
a·k1 (slope of Phase I) ([sinefungin] 0.075 µM): 0.0115 ± 4.27e-05 s⁻¹
b (amplitude, Phase II) ([sinefungin] 0.075 µM): -0.2170 ± 1.94E-04
k1 (rate constant, Phase I) ([sinefungin] 0.075 µM): 0.05564 ± 1.79E-04 s^-1
k2 (rate constant, Phase II) ([sinefungin] 0.075 µM): 0.00194 ± 5.83e-06 s⁻¹
-b·k2 (slope of Phase II) ([sinefungin] 0.15 µM): 0.000351 ± 1.48e-06 s⁻¹
a (amplitude, Phase I) ([sinefungin] 0.15 µM): 0.2215 ± 4.17E-04
a·k1 (slope of Phase I) ([sinefungin] 0.15 µM): 0.0126 ± 4.69e-05 s⁻¹
b (amplitude, Phase II) ([sinefungin] 0.15 µM): -0.2165 ± 3.17E-04
k1 (rate constant, Phase I) ([sinefungin] 0.15 µM): 0.05703 ± 1.83E-04 s^-1
k2 (rate constant, Phase II) ([sinefungin] 0.15 µM): 0.00162 ± 6.43e-06 s⁻¹
-b·k2 (slope of Phase II) ([sinefungin] 0.3 µM): 0.00021 ± 1.94e-06 s⁻¹
a (amplitude, Phase I) ([sinefungin] 0.3 µM): 0.2200 ± 4.51E-04
a·k1 (slope of Phase I) ([sinefungin] 0.3 µM): 0.0118 ± 4.79e-05 s⁻¹
b (amplitude, Phase II) ([sinefungin] 0.3 µM): -0.1711 ± 6.89E-04
k1 (rate constant, Phase I) ([sinefungin] 0.3 µM): 0.05374 ± 1.88E-04 s^-1
k2 (rate constant, Phase II) ([sinefungin] 0.3 µM): 0.00123 ± 1.02e-05 s⁻¹
-b·k2 (slope of Phase II) ([sinefungin] 0.75 µM): 0.000123 ± 2.15e-06 s⁻¹
a (amplitude, Phase I) ([sinefungin] 0.75 µM): 0.2668 ± 5.02E-04
a·k1 (slope of Phase I) ([sinefungin] 0.75 µM): 0.0149 ± 5.48e-05 s⁻¹
b (amplitude, Phase II) ([sinefungin] 0.75 µM): -0.1045 ± 8.19E-04
k1 (rate constant, Phase I) ([sinefungin] 0.75 µM): 0.05576 ± 1.77E-04 s^-1
k2 (rate constant, Phase II) ([sinefungin] 0.75 µM): 0.00118 ± 1.83e-05 s⁻¹
-b·k2 (slope of Phase II) ([sinefungin] 1.5 µM): 7.22e-05 ± 5.34e-06 s⁻¹
a (amplitude, Phase I) ([sinefungin] 1.5 µM): 0.287 ± 5.51E-04
a·k1 (slope of Phase I) ([sinefungin] 1.5 µM): 0.0164 ± 6.01e-05 s⁻¹
b (amplitude, Phase II) ([sinefungin] 1.5 µM): -0.1776 ± 8.27E-03
k1 (rate constant, Phase I) ([sinefungin] 1.5 µM): 0.05722 ± 1.79E-04 s^-1
k2 (rate constant, Phase II) ([sinefungin] 1.5 µM): 0.000406 ± 2.33e-05 s⁻¹
-b·k2 (slope of Phase II) ([sinefungin] 3 µM): 4.12e-05 ± 0.000152 s⁻¹
a (amplitude, Phase I) ([sinefungin] 3 µM): 0.2925 ± 5.44E-04
a·k1 (slope of Phase I) ([sinefungin] 3 µM): 0.0166 ± 5.83e-05 s⁻¹
b (amplitude, Phase II) ([sinefungin] 3 µM): -4.517
k1 (rate constant, Phase I) ([sinefungin] 3 µM): 0.05659 ± 1.69E-04 s^-1
k2 (rate constant, Phase II) ([sinefungin] 3 µM): 9.13e-06 ± 3.36e-05 s⁻¹
-b·k2 (slope of Phase II) ([sinefungin] 7.5 µM): 1.42e-05 ± 0.000372 s⁻¹
a (amplitude, Phase I) ([sinefungin] 7.5 µM): 0.2481 ± 5.15E-04
a·k1 (slope of Phase I) ([sinefungin] 7.5 µM): 0.0148 ± 5.77e-05 s⁻¹
b (amplitude, Phase II) ([sinefungin] 7.5 µM): -4.223
k1 (rate constant, Phase I) ([sinefungin] 7.5 µM): 0.05968 ± 1.97E-04 s^-1
k2 (rate constant, Phase II) ([sinefungin] 7.5 µM): 3.37e-06 ± 8.82e-05 s⁻¹
-b·k2 (slope of Phase II) ([sinefungin] 15 µM): 2.66e-06 ± 0.000274 s⁻¹
a (amplitude, Phase I) ([sinefungin] 15 µM): 0.2592 ± 5.43E-04
a·k1 (slope of Phase I) ([sinefungin] 15 µM): 0.0145 ± 5.77e-05 s⁻¹
b (amplitude, Phase II) ([sinefungin] 15 µM): -0.5239
k1 (rate constant, Phase I) ([sinefungin] 15 µM): 0.05599 ± 1.89E-04 s^-1
k2 (rate constant, Phase II) ([sinefungin] 15 µM): 5.08e-06 ± 0.000523 s⁻¹

— paper PMC5843908, “Detection of PRMT1 inhibitors with stopped flow fluorescence” (Signal Transduction and Targeted Therapy, 2018)
